Tests used:
[1] = test system: KB cell; experiment: MTS assay, growth inhibition of KB cells; assay type: cell-based; conditions: Homo sapiens, at 10 μM concentration, incubated for 72 h, read-out: Inhibition rate (%) (growth inhibition rate of MTS assay)
Description: MTS assay was performed in determining the growth inhibition of cancer cells. MTS ((3-(4,5-dimethylthiazol-2-yl)-5-(3-carboxymethoxyphenyl)-2-(4-sulfophenyl)-2H-tetrazolium)), in the presence of phenazine methosulfate (PMS) and reductases, produces a formazan product that has an absorbance maximum at 490-500 nm. MTS assays (and closely related MTT assay) are commonly used to measure cell viabilities or survivals.
Briefly, KB/Hela, NCI-H460, A375, Colo205, HCT-116, U937, MCF-7, MDA-MB-231, A549, H1975 cells were seeded into 96-well plate at 4000, 4000, 2000, 2000, 2000 cells/well. After 24 h for attachment, test compound was added into each well and incubated for 72 h. A total of 20 μl of MTS reaction reagent containing the MTS (Promega, Madison, Wis.) and PMS in a ratio of 20:1 was added into each well to react with dehydrogenase enzyme in survival cells. After 3 h, the absorbance at 490 nm was monitored using Emax precision microplate reader (Molecular Devices, Sunnyvale, Calif.).
The growth inhibition rate of MTS assay at KB cell of these compounds (at 10 μM concentration) are list in Table 5.

[2] = test system: biotinylated tubulin; experiment: Colchicine competitive-binding assay; conditions: at 10 μM concentration; 3H-colchicine; left column pair of Table 7
Description: The colchicine competitive-binding assay was done by using the Colchicine Site competitive Assay Kit (Cytoskeleton, Inc.), streptavidin-coated yttrium SPA beads(GE Healthcare, Inc.), and ^3H-colchicine(PerkinElmer, Inc.). Briefly, the binding mixture includes 1 μL^3H-labeled ligand (specific activity […]), and 1 μg biotinylated tubulin and 88 μg SPA beads in 200 μL assay buffer. The test compound and ^3H-labeled ligand were added before tubulin. After incubation at 37° C. for 2 hours, the SPA beads were allowed to settle down for 24 hours at room temperature, and scintillation counting was done on the TopCount Microplate Scintillation Counter.

SMILES | inhibition at 10 µM [1] [%] | binding rate (%) (colchicine competitive-binding) [2]
Cc1ccc(CCC(=O)Nc2ncc(Cc3ccccc3)s2)o1 [Compound 1, N-(5-Benzyl-thiazol-2-yl)-3-(5-methyl-furan-2-yl)-propionamide] | 95.4 | 50.2
O=C(CCc1cccnc1)Nc1ncc(Cc2ccc(F)cc2)s1 [Compound 4, N-[5-(4-Fluoro-benzyl)-thiazol-2-yl]-3-pyridin-3-yl-propionamide] | 93.9 | 58.6
COc1ccc(Cc2cnc(NC(=O)CCc3ccc(C)o3)s2)cc1 [Compound 5, N-[5-(4-Methoxy-benzyl)-thiazol-2-yl]-3-(5-methyl-furan-2-yl)-propionamide] | 95.8 | 63.8
O=C(CCc1ccccc1)Nc1ncc(Cc2ccc3c(c2)OCO3)s1 [Compound 6, N-(5-Benzo[1,3]dioxol-5-ylmethyl-thiazol-2-yl)-3-phenyl-propionamide] | 95.1 | 63.6
COc1ccc(Cc2cnc(NC(=O)CCc3ccc(F)cc3)s2)cc1 [Compound 11, 3-(4-Fluoro-phenyl)-N-[5-(4-methoxy-benzyl)-thiazol-2-yl]-propionamide] | 95.1 | 62.4
O=C(CCc1ccc(F)cc1)Nc1ncc(Cc2ccc(F)cc2)s1 [Compound 12, N-[5-(4-Fluoro-benzyl)-thiazol-2-yl]-3-(4-fluoro-phenyl)-propionamide] | 96 | 51.2
COc1ccc2cc(Cc3cnc(NC(=O)CCc4ccc(F)cc4)s3)ccc2c1 [Compound 13, 3-(4-Fluoro-phenyl)-N-[5-(6-methoxy-naphthalen-2-ylmethyl)-thiazol-2-yl]-propionamide] | 94.6 | 60.0
COc1cc(Cc2cnc(NC(=O)CCc3ccccc3)s2)cc(OC)c1OC [Compound 49, 3-Phenyl-N-[5-(3,4,5-trimethoxy-benzyl)-thiazol-2-yl]-propionamide] | 95.1 | 64.9
O=C(CCc1ccc(F)cc1)Nc1ncc(Sc2ccccc2)s1 [Compound 65, 3-(4-Fluoro-phenyl)-N-(5-phenylsulfanyl-thiazol-2-yl)-propionamide] | 96.3 | –
O=C(CCc1cccnc1)Nc1ncc(Sc2ccccc2)s1 [Compound 66, N-(5-Phenylsulfanyl-thiazol-2-yl)-3-pyridin-3-yl-propionamide] | 93.3 | –
O=C(CCc1ccccc1)Nc1ncc(Sc2ccccc2)s1 [Compound 67, 3-Phenyl-N-(5-phenylsulfanyl-thiazol-2-yl)-propionamide] | 96.6 | –
COc1cccc(CCC(=O)Nc2ncc(Sc3ccccc3)s2)c1 [Compound 68, 3-(3-Methoxy-phenyl)-N-(5-phenylsulfanyl-thiazol-2-yl)-propionamide] | 94.4 | –
Cc1ccc(CCC(=O)Nc2ncc(Sc3ccccc3)s2)o1 [Compound 72, 3-(5-Methyl-furan-2-yl)-N-(5-phenylsulfanyl-thiazol-2-yl)-propionamide] | 60 | –
O=C(CCc1ccc(-c2ccccc2)cc1)Nc1ncc(Sc2ccccc2)s1 [Compound 73, 3-Biphenyl-4-yl-N-(5-phenylsulfanyl-thiazol-2-yl)-propionamide] | 97 | –
COc1ccc(Oc2cnc(NC(=O)CCc3ccc(C)o3)s2)cc1 [Compound 74, N-[5-(4-Methoxy-phenoxy)-thiazol-2-yl]-3-(5-methyl-furan-2-yl)-propionamide] | 96.9 | –
O=C(CCc1ccccc1)Nc1ncc(SCc2ccccc2)s1 [Compound 75, N-(5-Benzylsulfanyl-thiazol-2-yl)-3-phenyl-propionamide] | 82.5 | –
COc1cccc(N2CCN(c3cnc(NC(=O)CCc4ccccc4)s3)CC2)c1 [Compound 76, N-{5-[4-(3-Methoxy-phenyl)-piperazin-1-yl]-thiazol-2-yl}-3-phenyl-propionamide] | 95 | –
Cc1ccc(CCC(=O)Nc2ccc(-n3ccc4ccccc43)cn2)o1 [Compound 78, N-(5-Indol-1-yl-pyridin-2-yl)-3-(5-methyl-furan-2-yl)-propionamide] | 93.9 | –
Cc1ccc(CCC(=O)Nc2ccc(Sc3ccccc3)cn2)o1 [Compound 80, 3-(5-Methyl-furan-2-yl)-N-(5-phenylsulfanyl-pyridin-2-yl)-propionamide] | 79.4 | –
O=C(CCc1cccnc1)Nc1ccc(Sc2ccccc2)cn1 [Compound 82, N-(5-Phenylsulfanyl-pyridin-2-yl)-3-pyridin-3-yl-propionamide] | 95.6 | –

SMILES | inhibition at 10 µM [1] [%] | binding rate (%) (colchicine competitive-binding) [2]
O=C(CCc1ccccc1)Nc1ccc(SCc2ccccc2)cn1 [Compound 86, N-(5-Benzylsulfanyl-pyridin-2-yl)-3-phenyl-propionamide] | 92.8 | –
COc1ccc(Cc2nnc(NC(=O)CCc3ccc(C)o3)s2)cc1 [Compound 88, N-[5-(4-Methoxy-benzyl)-[1,3,4]thiadiazol-2-yl]-3-(5-methyl-furan-2-yl)-propionamide] | 93.5 | –
COc1ccc(Cc2nnc(NC(=O)CCc3ccccc3)s2)cc1 [Compound 89, N-[5-(4-Methoxy-benzyl)-[1,3,4]thiadiazol-2-yl]-3-phenyl-propionamide] | 96.9 | –
Cn1c(-c2ccccc2)cnc1NC(=O)CCc1ccccc1 [Compound 90, N-(1-Methyl-5-phenyl-1H-imidazol-2-yl)-3-phenyl-propionamide] | 96.6 | –
Cc1ccc(CCC(=O)Nc2ncc(-c3ccccc3)n2C)o1 [Compound 91, 3-(5-Methyl-furan-2-yl)-N-(1-methyl-5-phenyl-1H-imidazol-2-yl)-propionamide] | 96 | –
Cc1ccc(CCC(=O)Nc2ncc(/C=C/c3ccccc3)cn2)o1 [Compound 95, 3-(5-Methyl-furan-2-yl)-N-(5-styryl-pyrimidin-2-yl)-propionamide] | 93.6 | –
O=C(/C=C/c1ccccc1)Nc1ncc(/C=C/c2ccccc2)cn1 [Compound 96, 3-Phenyl-N-(5-styryl-pyrimidin-2-yl)-acrylamide] | 96.8 | –
O=C(CCc1ccccc1)Nc1ncc(/C=C/c2ccccc2)cn1 [Compound 97, 3-Phenyl-N-(5-styryl-pyrimidin-2-yl)-propionamide] | 52.7 | –
COc1ccc(-c2cnc(NC(=O)CCc3ccc(C)o3)nc2)c(OC)c1 [Compound 107, N-[5-(2,4-Dimethoxy-phenyl)-pyrimidin-2-yl]-3-(5-methyl-furan-2-yl)-propionamide] | 97 | –
O=C(Nc1ncc(-c2ccccc2)cn1)OCc1ccccc1 [Compound 108, (5-Phenyl-pyrimidin-2-yl)-carbamic acid benzyl ester] | 96.9 | –
O=C(Nc1ncc(-c2ccc(F)cc2)cn1)OCc1ccccc1 [Compound 109, [5-(4-Fluoro-phenyl)-pyrimidin-2-yl]-carbamic acid benzyl ester] | 95.9 | –
O=C(CCc1ccccc1)Nc1ccc(-c2ccccc2)cn1 [Compound 110, 3-Phenyl-N-(5-phenyl-pyridin-2-yl)-propionamide] | 97 | –
O=C(CCc1ccccc1)Nc1ccc(-c2ccc(F)cc2)cn1 [Compound 113, N-[5-(4-Fluoro-phenyl)-pyridin-2-yl]-3-phenyl-propionamide] | 97.1 | –
Cc1ccc(CCC(=O)Nc2ccc(-c3ccccc3)cn2)s1 [Compound 114, 3-(5-Methyl-thiophen-2-yl)-N-(5-phenyl-pyridin-2-yl)-propionamide] | 93.4 | –
COc1cccc(-c2ccc(NC(=O)CCc3ccc(C)o3)nc2)c1OC [Compound 115, N-[5-(2,3-Dimethoxy-phenyl)-pyridin-2-yl]-3-(5-methyl-furan-2-yl)-propionamide] | 95.8 | –
COc1cccc(-c2ccc(NC(=O)CCc3ccccc3)nc2)c1OC [Compound 116, N-[5-(2,3-Dimethoxy-phenyl)-pyridin-2-yl]-3-phenyl-propionamide] | 94.1 | –
Cc1cc(-c2ccccc2)cnc1NC(=O)CCc1ccccc1 [Compound 117, N-(3-Methyl-5-phenyl-pyridin-2-yl)-3-phenyl-propionamide] | 94.6 | –
Cc1cc(-c2ccc(N(C)C)cc2)cnc1NC(=O)C(C)Cc1ccccc1 (centres unmarked) [Compound 121, N-[5-(4-Dimethylamino-phenyl)-3-methyl-pyridin-2-yl]-2-methyl-3-phenyl-propionamide] | 93.5 | –
Cc1ccc(CCC(=O)Nc2cnc(-c3ccccc3)cn2)o1 [Compound 122, 3-(5-Methyl-furan-2-yl)-N-(5-phenyl-pyrazin-2-yl)-propionamide] | 80.8 | –

— patent US8883793B2, “Tubulin inhibitors and methods of using the same” (Development Center for Biotechnology, priority 2010, dated 2014)
